Data reported in US20040116385A1, “Treating and preventing viral infections with porphyrin-based compounds” (priority 2002, published 2004).

What was measured:
[1] = test system: V79 hamster fibroblast cells
From the text: We have also determined the cytotoxicity of porphyrins 4, 16, 18, and 31 in V79 hamster fibroblast cells using a clonogenic assay.

[2] = test system: supercoiled DNA substrate φX174; assay: Supercoiled DNA nicking assay (DNA photodamage); assay type: biochemical; details: for Form II (nicked) DNA produced in the dark: samples kept in the dark; for phosphodiester breaks in supercoiled DNA, light-exposed versus dark: yellow light 100 W bulb, 30 cm, 30 minutes
From the text: In the first test to determine the ability of a porphyrin to induce DNA photodamage, we used a supercoiled DNA substrate that migrates rapidly as a single band in agarose gels, but migrates much more slowly if the DNA sustains as little as a single phosphodiester break or nick. Using this technique, we examined the ability of porphyrins 16, 31 and 33 to nick the supercoiled DNA substrate φX174. The porphyrin—DNA mixtures were shielded from light until just prior to the nicking assay, at which time half of each sample remained in the dark, while the other half was exposed to yellow light from a 100 W bulb at a distance of 30 cm for 30 minutes, at room temperature. The samples were then incubated for 30 min at room temperature in the dark, and the products of the reaction were then electrophoresed on a 1% agarose gel and stained.

HIV-1 strain IIIB = assay: In vitro virucidal activity against HIV-1 strain IIIB (assay of A. Vzorov et al. 2002); assay type: cell-based; details: 0% = no infective particles remained
Protocol: (§1) Porphyrins 16, 31, and 33 have been assayed for in vitro virucidal activity against HIV-1 using the assay of A. Vzorov et al. (2002) (full citation below). The assay was conducted on two different strains of HIV-1, strain IIIB, and strain 89.6. The figures in the table denote the percentage of viral particles that were still infective following treatment.

HIV-1 strain 89.6 = assay: In vitro virucidal activity against HIV-1 strain 89.6 (assay of A. Vzorov et al. 2002); assay type: cell-based; details: 0% = no infective particles remained
Protocol: as §1

[3] = mouse, in vivo
[4] = test system: human leukemia K562 cells; assay: Alkaline Comet assay; assay type: cell-based; details: yellow light 100 W bulb 5 minutes, versus dark and light-only controls
Protocol: The second test, the alkaline Comet assay, is a sensitive technique for determining the presence of single- and double-strand breaks and other DNA lesions such as baseless sites. Human K562 cells were incubated with porphyrins 16, 31, and 33, and were then either exposed to a source of yellow light from a 100 W bulb for 5 minutes at room temperature or kept in the dark. The cells were then immobilized on agarose slides, lysed, exposed to alkaline buffer, electrophoresed, and stained for visualization.

HIV-1 = details: preliminary experiments
[5] = test system: Human glioblastoma U373 MG cells; assay: Dark cytotoxicity assay, U-373 MG cells; assay type: cell-based; details: 24 hour exposure, read-out: IC50 (dark toxicity)
Protocol: (§2) Human glioblastoma U373 MG, hamster V79 fibroblast, and mouse melanoma B16 cells were obtained from the American Type Culture Collection. Rat gliosarcoma cells were kindly provided by the University of California at San Francisco Brain Tumor Research Group. All cells were maintained in log phase monolayer cultures with RPMI 1640 supplemented with 10% fetal bovine serum and 2 mM glutamine.
(§3) Cells were seeded in 96-well culture plates, and were allowed to settle and attach for 24-48 hours. Triplicate wells were then exposed to twofold serial dilutions of test compounds at concentrations up to 250 μM. Compounds 4, 6, 10, and 12 in crystalline form were carefully weighed and dissolved in 100% DMSO to prepare stock solutions. Subsequent dilutions were performed directly in the culture medium just before the medium was administered to cells. After short-term (2 hour) or long-term (24 hour) exposure, cells were washed, and the wells were refilled with fresh culture medium. For dark toxicity trials, cells were allowed to proliferate for an additional 48-72 hours. For phototoxicity trials, washed cells were irradiated for 10 minutes with broad spectrum (600-700 nm) red light, and were then returned to an incubator for 48-72 hours.

Rat gliosarcoma 9L cells = assay: Dark cytotoxicity assay, 9L cells; assay type: cell-based; details: 24 hour exposure, read-out: IC50 (dark toxicity)
Protocol: as §2, §3

[6] = test system: 9L, U-373MG and B16 cells; assay: Concentration-dependent cellular uptake; assay type: cell-based; details: cells exposed to 1, 5, and 10 μM for 24 hours
Protocol: The concentration-dependent uptake of compounds 4, 6, 10, and 12 was investigated in cells exposed to 1, 5, and 10 μM concentrations of the porphyrins for 24 hours. The concentration of intracellular-bound porphyrin was determined by chemical extraction of washed cell monolayers, followed by spectrophotometric or ICP-MS determinations, or both. The uptake values for 9L and U-373MG cells were very similar, and exceeded that for B16 cells. The porphyrin accumulation was invariably observed to increase with increasing concentration of the compound.

[7] = test system: 9L, U-373 MG and B16 cells; assay: Phototoxicity assay (red light irradiation); assay type: cell-based; details: irradiation with broad spectrum (600-700 nm) red light 10 minutes
Protocol: as §2, §3

Substance	CS50 [1] [µM]	Form II (nicked) DNA produced in the dark [2]	phosphodiester breaks in supercoiled DNA, light-exposed versus dark [2]	percentage of viral particles that were still infective following treatment (HIV-1 strain IIIB) [%]	percentage of viral particles that were still infective following treatment (HIV-1 strain 89.6) [%]	maximum tolerated dose [3]	DNA damage (Comet tail) after light exposure [4]	activity against HIV-1 in vitro (HIV-1)	IC50 [5] [µM]	IC50 (Rat gliosarcoma 9L cells) [µM]	uptake relative to the corresponding Zn(II) complexes [6]	IC50 ([7]; 2-hour exposure) [µM]	IC50 ([7]; 24-hour exposure) [µM]
5,15-bis[bis-3,5-(1-methyl-nido-carboranyl)methylphenyl]porphyrin tetrapotassium salt [Compound 31]	> 300	little Form II DNA	significantly more effective	9	2	exceeded 300 mg per kg of body weight	light-activated DNA damage	high levels of activity					
meso-tetra[3-(1-methyl-nido-carboranyl)methylphenyl]porphyrin tetrapotassium salt [Compound 10]									~150	~150	approximately four times greater		
meso-tetra[4-(nido-carboranyl)phenyl]porphyrin tetrapotassium salt [Compound 16]	> 300	little Form II DNA	significantly more effective	4	0	exceeded 300 mg per kg of body weight	light-activated DNA damage	high levels of activity					
meso-tetra[4-(1-methyl-nido-arboranyl)methylphenyl]porphyrin tetrapotassium salt [Compound 4]	> 300					exceeded 300 mg per kg of body weight			~150	~150	approximately four times greater	~50	~1.5
Zn(II)-meso-tetra[4-(1-methyl-nido-carboranyl)methylphenyl]porphyrin tetrapotassium salt [Compound 6]						exceeded 300 mg per kg of body weight							
Zn(II)-meso-tetra[4-(nido-carboranyl)phenyl]porphyrin tetrapotassium salt [Compound 18]	> 300												
Zn(II)-5,15-bis[bis-3,5-(1-methyl-nido-carboranyl)methylphenyl]porphyrin tetrapotassium salt [Compound 33]		little Form II DNA	significantly more effective	0	4	exceeded 300 mg per kg of body weight	light-activated DNA damage	high levels of activity					
